Legend:
NOX [1] = target: T1, NOX (Homo sapiens, UniProt P04839); test: Amplex Red measurement of extracellular hydrogen peroxide (NOX activity) in DMSO-differentiated HL60 cells; assay type: cell-based
T1 construct: HL60 differentiation to the neutrophil phenotype was triggered by adding Me2SO; endogenous in cells; host or cells: HL-60 cells differentiated with Me2SO (1.25% v/v, 6 days) to the neutrophil phenotype
T1 sequence (P04839 2-570 limits assumed): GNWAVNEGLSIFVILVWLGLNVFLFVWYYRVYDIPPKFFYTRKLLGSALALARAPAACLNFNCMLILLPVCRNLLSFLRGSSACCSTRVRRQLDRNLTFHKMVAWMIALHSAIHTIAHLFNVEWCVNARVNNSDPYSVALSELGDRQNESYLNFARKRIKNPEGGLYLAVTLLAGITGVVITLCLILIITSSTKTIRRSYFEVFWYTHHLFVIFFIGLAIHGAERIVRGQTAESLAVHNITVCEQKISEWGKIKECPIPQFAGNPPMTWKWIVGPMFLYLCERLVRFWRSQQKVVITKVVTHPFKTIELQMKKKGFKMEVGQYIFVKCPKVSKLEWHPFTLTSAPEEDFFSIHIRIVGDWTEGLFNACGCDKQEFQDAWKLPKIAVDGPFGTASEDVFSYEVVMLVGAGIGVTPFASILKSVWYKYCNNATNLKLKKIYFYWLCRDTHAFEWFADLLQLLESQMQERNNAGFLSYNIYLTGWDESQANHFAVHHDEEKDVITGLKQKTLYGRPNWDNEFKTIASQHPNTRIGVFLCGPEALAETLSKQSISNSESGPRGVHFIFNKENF
T1 sequence (P13498 1-195 partner): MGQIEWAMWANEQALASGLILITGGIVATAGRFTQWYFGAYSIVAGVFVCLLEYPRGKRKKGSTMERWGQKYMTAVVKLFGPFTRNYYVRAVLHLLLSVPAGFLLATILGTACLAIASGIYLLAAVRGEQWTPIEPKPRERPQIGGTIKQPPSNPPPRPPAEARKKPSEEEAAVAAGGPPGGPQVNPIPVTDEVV
Experimental: Human acute myeloid leukemia cell line HL-60 was cultured in RPMI 1640 (Invitrogen) supplemented with 10% heat-inactivated calf serum, 2 mM glutamine, 100 U/mL penicillin (Sigma), and 100 μg streptomycin (Sigma) at 37° C. under a humidified atmosphere of 5% CO2. HL60 differentiation to the neutrophil phenotype was triggered by adding Me2SO (final concentration 1.25% v/v for 6 days) to the culture medium.
Extracellular hydrogen peroxide was measured using Amplex UltraRed (Molecular Probes). Cells were trypsinized (1× Trypsin-EDTA), collected by centrifugation, and resuspended in HBSS supplemented with 1% glucose. Cells were seeded into black 96-well plates at a density of 50′000 cells in 200 μl testing buffer (HBSS 1% glucose containing 0.005 U/mL horseradish peroxidase (Roche) and 50 μM Amplex Red in the presence or absence of compounds according to the invention. As a control, DPI was included at a final concentration of 10 μM The plates were placed in the fluorescent Optima Fluorescent plate reader and kept at 37° C. during 20 min. Fluorescence was measured for […] with excitation and emission wavelengths of 544 nm and 590 nm respectively. NOX activities were expressed as % of the activity in control cells. Residual activity of DPI-treated cells was usually <10%. […]
The Table 3 below summarizes the IC50 of NOX activity as measured by Amplex Red using DMSO-differentiated HL60 cells as described above: […]

NOX [2] = test: Nitroblue tetrazolium (NBT) superoxide test in cells; assay type: cell-based, human; details: DPI 10 μM, usually
Experimental: Human microglia cell line (HMC3, human microglia clone 3) (Janabi et al., 1995, Neurosci. Lett. 195:105) were cultured in MEM (Eagle's minimum essential medium) containing 10% FBS with 50 U/ml penicillin G sodium 50 μg/ml streptomycin sulfate, and incubated at 37° C. for 24 hours. IFN-γ (human IFN-γ, Roche. 11 040 596 001) was added to the culture medium for a final concentration of 10 ng/ml 24 h, before detection of O2^− formation. […]
Intracellular and extracellular superoxide was measured by a colorimetric technique using a quantitative nitroblue tetrazolium (NBT) test. SOD-inhibitable conversion of NBT to formazan, a fine blue precipitate, in the presence of superoxide anion was measured using Fluostar Optima spectrometer (BMG labtech). […] The absorption was measured at 630 nm. For calculation, the absorbance at 630 nm was normalized for each individual well. […] NOX activities were expressed as % of the activity in control cells. […]

NOX [3] = test: H2DCF-DA fluorescence in TGF-β stimulated HUVEC; assay type: cell-based, human; details: usually
Experimental: HUVEC are cultured in endothelial basal medium supplemented with hydrocortisone (1 μg/mL, Calbiochem), bovine brain extract (12 μg/mL), gentamicin (50 μg/mL, Calbiochem), amphotericin B (50 ng/mL, Calbiochem EGF (10 ng/mL, and 10% FCS until the fourth passage. When the fifth passage was started, cells were cultured with a lower concentration of FCS (2%) in the absence of EGF, if not indicated otherwise. All experiments were done with cells of the fifth passage. The cells were incubated with OxLDL (oxidized low-density lipoprotein) or its buffer as control for 24 h, before detection of O2^− formation.
HUVEC were plated on coverslips and made quiescent overnight in 0.5% BSA before stimulation with TGF-β. Cells were loaded for 10 minutes with 5 μM CM-H2DCF-DA in phenol-red-free medium in the dark and then treated with TGF-β (R&D Systems) in the presence or absence of compounds according to the invention. Cells were then visualized by immunofluorescence microscopy after fixation and staining of the nuclei with DAPI or examined live using confocal microscopy. DCF fluorescence was visualized at an excitation wavelength of 488 nm and emission at 515 to 540 nm. […] For calculation, the absorbance at […] was normalized to absorbance at […] for each individual well. […] NOX activities were expressed as % of the activity in control cells. […]

NOX [4] = test: Chemiluminescence (luminol) ROS measurement in cells; assay type: cell-based, human; details: usually
Experimental: ROS was measured using the chemiluminescent probe luminol. Cells were cultured and plated as for Amplex Red except that the Amplex Red agent was replaced by 10 μg/mL luminol (Sigma 09235). Light emission was recorded continuously at 37° C. for 60 minutes using the luminescence function of the FluoStar Optima fluorescent plate reader. The mean of the four blank values was subtracted from each corrected value for each time point. NOX activities were expressed as % of the activity in control cells. Residual activity of DPI-treated cells was usually <10%.

Structure (SMILES)	IC50 (NOX [1])	also measured
O=c1c2c([nH]n1-c1ccc(F)cc1Cl)CCN(Cc1ccccc1)C2 [Compound 2, 5-benzyl-2-(2-chloro-4-fluorophenyl)-1,2,4,5,6,7-hexahydro-3H-pyrazolo[4,3-c]pyridin-3-one]	< 5 µM	
CS(=O)(=O)N1CCc2[nH]n(Cc3ccccc3)c(=O)c2C1 [Compound 102, 2-benzyl-5-(methylsulfonyl)-1,2,4,5,6,7-hexahydro-3H-pyrazolo[4,3-c]pyridin-3-one]	< 5 µM	
Cn1[nH]c2c(c1=O)CN(Cc1ccccc1)CC2 [Compound 8, 5-benzyl-2-methyl-1,2,4,5,6,7-hexahydro-3H-pyrazolo[4,3-c]pyridin-3-one]	< 5 µM	
O=c1c2c([nH]n1Cc1ccccc1)CCN(Cc1ccc(Cl)cc1)C2 [Compound 9, 2-benzyl-5-(4-chlorobenzyl)-1,2,4,5,6,7-hexahydro-3H-pyrazolo[4,3-c]pyridin-3-one]	< 5 µM	
c1ccc([I+]c2ccccc2)cc1 [DPI, Diphenyl-iodonium]		Residual activity of DPI-treated cells (NOX activity as % of control cells) (NOX [2]): < 10%; Residual activity of DPI-treated cells (NOX activity as % of control cells) (NOX [3]): < 10%; Residual activity of DPI-treated cells (NOX activity as % of control cells) (NOX [4]): < 10%
O=c1c2c([nH]n1Cc1ccccc1)CCN(Cc1ccccc1)C2 [Compound 12, 2,5-dibenzyl-1,2,4,5,6,7-hexahydro-3H-pyrazolo[4,3-c]pyridin-3-one]	< 5 µM	
O=c1c2c([nH]n1-c1ccc(F)cc1Cl)CCNC2 [Compound 4, 2-(2-chloro-4-fluorophenyl)-1,2,4,5,6,7-hexahydro-3H-pyrazolo[4,3-c]pyridin-3-one]	< 5 µM	

Now from value to molecule, other results behind:

IC50 (NOX [1])	Structure (SMILES)	also measured
< 5 µM	COc1cccc(-n2[nH]c3c(c2=O)CN(Cc2ccccc2)CC3)c1 [Compound 24, 5-benzyl-2-(3-methoxyphenyl)-1,2,4,5,6,7-hexahydro-3H-pyrazolo[4,3-c]pyridin-3-one]	
< 5 µM	CN1N=C2CCN(Cc3ccc(Cl)cc3)CC2(Cc2cccnc2)C1=O (stereo not shown) [Compound 87, 5-(4-chlorobenzyl)-2-methyl-3a-(pyridin-3-ylmethyl)-2,3a,4,5,6,7-hexahydro-3H-pyrazolo[4,3-c]pyridin-3-one]	
< 5 µM	O=c1c2c([nH]n1-c1cccc(OCc3ccccc3)c1)CCN(Cc1ccccc1)C2 [Compound 3, 5-benzyl-2-[3-(benzyloxy)phenyl]-1,2,4,5,6,7-hexahydro-3H-pyrazolo[4,3-c]pyridin-3-one]	
< 5 µM	O=c1c2c([nH]n1Cc1ccc(Cl)cc1)CCN(Cc1ccccc1)C2 [Compound 1, 5-benzyl-2-(4-chlorobenzyl)-1,2,4,5,6,7-hexahydro-3H-pyrazolo[4,3-c]pyridin-3-one]	
< 5 µM	CN1CCC(n2[nH]c3c(c2=O)CN(Cc2ccc(Cl)nc2)CC3)CC1 [Compound 96, 5-[(6-chloropyridin-3-yl)methyl]-2-(1-methylpiperidin-4-yl)-1,2,4,5,6,7-hexahydro-3H-pyrazolo[4,3-c]pyridin-3-one]	
< 5 µM	Cc1ccc(S(=O)(=O)N2CCc3[nH]n(Cc4cn5ccccc5n4)c(=O)c3C2)cc1 [Compound 103, 2-(imidazo[1,2-a]pyridin-2-ylmethyl)-5-[(4-methylphenyl)sulfonyl]-1,2,4,5,6,7-hexahydro-3H-pyrazolo[4,3-c]pyridin-3-one]	
< 5 µM	O=c1c2c([nH]n1Cc1ccccc1)CCN(Cc1ccc(Cl)nc1)C2 [Compound 97, 2-benzyl-5-[(6-chloropyridin-3-yl)methyl]-1,2,4,5,6,7-hexahydro-3H-pyrazolo[4,3-c]pyridin-3-one]	
